# Measurements published in patent US20080031866A1, “METHOD FOR MODULATING THE PHARMACOKINETICS AND METABOLISM OF A THERAPEUTIC AGENT” (priority 2006, published 2008).
# Tests used:
# [1] = Intraduodenal dosing with and without β-glucuronidase, catheterized rat; type: in vivo; conditions: male, Sprague Dawley, rat, plasma, 10 mg/kg, rats N=6; for AUC: read-out: AUC average ± standard deviation 0 to 6 hours; for Cmax: read-out: Cmax average ± standard deviation; for concentration at 0 h / concentration at 0.25 h / concentration at 0.5 h / concentration at 1 h / concentration at 2 h / concentration at 3 h / concentration at 4 h / concentration at 5 h / concentration at 6 h: other: intraduodenal
# Method: (§1) A catheterized rat model was used in which the agent alone or agent and β-glucuronidase enzyme was administered intraduodenally or intracolonically. The intraduodenal and intracolonic dosing was intended to prevent the potential for loss of enzymatic activity when orally dosing the β-glucuronidase (e.g. by degradation in the stomach). […]
# (§2) For the oral gavage dosing, Compound 1 was prepared in neat PEG-400. For the intraduodenal and intracolonic dosing solutions, Compound 1 was added to neat Tween 80, the mixture was sonicated for thirty minutes at 45° C. until Compound 1 was completely dissolved and then deionized (DI) water was added to form a solution consisting of 20% Tween 80 and 80% DI water by weight.
# (§3) For the oral enzyme solutions, β-glucuronidase was added to the final formulation at a concentration of 57,600 units/ml.
# (§4) For the intraduodenal and intracolonic dosing, male Sprague Dawley rats weighing 300-400 g were purchased from Charles River Labs. All rat experiments were conducted under approved animal protocols. The rats were catheterized at Charles River Labs and had one or more of the following chronic catheters for dosing and sampling: jugular/carotid, duodenal, and colonic. Rats were limited to only one GI catheter and one vascular catheter. For IV dosing, rats were purchased with jugular and carotid catheters for dosing in the jugular catheter and blood sampling through the carotid catheter. For intraduodenal/intracolonic dosing, rats had one of the GI catheters for dosing and a carotid catheter for blood sampling.
# (§5) The surgeries were done two weeks prior to start of testing. Rats were fed 4 hours post dose administration. All rats were dosed without anesthesia and sacrificed at the end of the study.
# (§6) A quantitative method for determining the amount of (6,7-dimethoxy-2,4-dihydro-indeno[1,2-c]pyrazol-3-yl)-(3-fluoro-phenyl)-amine Compound 1 and its major metabolites, glucuronide A (Cpd 1-GluA) and glucuronide B (Cpd 1-GluB) (see Scheme A) in rat plasma was developed using phenacetin as an internal standard. [drawing 1]
# (§7) The two glucuronide conjugates were prepared and purified to permit accurate quantification of the levels of intact parent Compound 1 versus Cpd 1-GluA and Cpd 1-GluB. Each standard curve for Compound 1, Cpd 1-GluA, and Cpd 1-GluB generated from rat plasma included ten concentration levels. […] The quantitative procedure for each sample included: sample preparation, HPLC separation and mass spectrometry detection.
# (§8) The rat plasma was prepared using protein precipitation techniques. Reference standards and quality control samples in rat plasma for Compound 1 were transferred to a 96 deep-well plate. The precipitation solution contained 100 ng/ml of internal standard in acetonitrile. 300 μl of precipitation solution were added to 100 μl of each standard, quality control and plasma sample. Samples were vortexed for 10 mins, then centrifuged at 4500 RPM for 10 mins. 10 μl of each sample were injected for LC/MS/MS analysis.
# (§9) The HPLC column chosen for the bioanalysis was purchased from Thermo Electron (Hypersil BetaBasic C18, 5 cm×2.1 mm). The eluting solvents were composed of Solvent A: 0.1% formic acid in H2O and Solvent B: 0.1% formic acid in acetonitrile. A step gradient was used and flow rate was 300 μl/min. The total run time was 3.2 mins. Solvent B was increased from 35% at 0 min to 75% at 2.1 mins and decreased back to 35% at 2.2 mins. The retention times for Compound 1, phenacetin, Cpd 1-GluA and Cpd 1-GluB were 1.1 min, 0.9 min, 1.3 min, and 1.6 min, respectively.
# (§10) API3000 with a Turbo Ionspray interface from Applied Biosystems was used for the detection of Compound 1, the internal standard and major metabolites. Electrospray ionization was performed in the positive ion mode heated nebulizer with a temperature of 300° C. LC/MS/MS chromatograms were acquired in MRM (multiple reaction mode). […]
# [2] = Intracolonic dosing with and without β-glucuronidase, catheterized rat; type: in vivo; conditions: 10 mg/kg, rats N=6; for AUC / Cmax / concentration at 0 h / concentration at 0.25 h / concentration at 0.5 h / concentration at 1 h / concentration at 2 h / concentration at 3 h / concentration at 4 h / concentration at 5 h / concentration at 6 h: male, Sprague Dawley, rat, plasma; for AUC: read-out: AUC average ± standard deviation 0 to 6 hours; for Cmax: read-out: Cmax average ± standard deviation; for concentration at 0 h / concentration at 0.25 h / concentration at 0.5 h / concentration at 1 h / concentration at 2 h / concentration at 3 h / concentration at 4 h / concentration at 5 h / concentration at 6 h: other: intracolonic
# Method: as §1, §2, §3, §4, §5, §6, §7, §8, §9, §10
# [3] = Compound 1 10 mg/kg intraduodenal with β-glucuronidase
# [4] = Compound 1 10 mg/kg intraduodenal without enzyme
# [5] = Compound 1 10 mg/kg intracolonic with β-glucuronidase
# [6] = Compound 1 10 mg/kg intracolonic without enzyme
compound,measurement,setting,value
COc1cc2c(cc1OC)-c1nn(C3OC(C(=O)O)C(O)C(O)C3O)c(Nc3cccc(F)c3)c1C2 (stereo in doubt) [Cpd 1-GluB],AUC,[1]; [3],1770 ng·h/mL
same,Cmax,[1]; [3],755 ± 509 ng/mL
same,AUC,[1]; [4],128 ± 55.3 ng·h/mL
same,Cmax,[1]; [4],75.7 ± 27.4 ng/mL
same,concentration at 0 h,[1]; [3],0 ng/mL
same,concentration at 0.25 h,[1]; [3],508 ± 342 ng/mL
same,concentration at 0.5 h,[1]; [3],503 ± 363 ng/mL
same,concentration at 1 h,[1]; [3],676 ± 586 ng/mL
same,concentration at 2 h,[1]; [3],275 ± 260 ng/mL
same,concentration at 3 h,[1]; [3],271 ± 181 ng/mL
same,concentration at 4 h,[1]; [3],194 ± 165 ng/mL
same,concentration at 5 h,[1]; [3],146 ± 84.4 ng/mL
same,concentration at 6 h,[1]; [3],119 ± 108 ng/mL
same,concentration at 0 h,[1]; [4],0 ng/mL
same,concentration at 0.25 h,[1]; [4],70.2 ± 29.3 ng/mL
same,concentration at 0.5 h,[1]; [4],72.4 ± 28.2 ng/mL
same,concentration at 1 h,[1]; [4],51.2 ± 24.9 ng/mL
same,concentration at 2 h,[1]; [4],13.5 ± 5.5 ng/mL
same,concentration at 3 h,[1]; [4],7.1 ± 5 ng/mL
same,concentration at 4 h,[1]; [4],9.6 ± 6.7 ng/mL
same,concentration at 5 h,[1]; [4],9.2 ± 4.1 ng/mL
same,concentration at 6 h,[1]; [4],10.4 ± 4 ng/mL
same,AUC,[2]; [5],176 ± 123 ng·h/mL
same,Cmax,[2]; [5],79.4 ± 47.3 ng/mL
same,AUC,[2]; [6],499 ± 137 ng·h/mL
same,Cmax,[2]; [6],140 ± 56.9 ng/mL
same,concentration at 0 h,[2]; [5],0 ng/mL
same,concentration at 0.25 h,[2]; [5],508 ± 342 ng/mL
same,concentration at 0.5 h,[2]; [5],503 ± 363 ng/mL
same,concentration at 1 h,[2]; [5],676 ± 586 ng/mL
same,concentration at 2 h,[2]; [5],275 ± 260 ng/mL
same,concentration at 3 h,[2]; [5],271 ± 181 ng/mL
same,concentration at 4 h,[2]; [5],194 ± 165 ng/mL
same,concentration at 5 h,[2]; [5],146 ± 84.4 ng/mL
same,concentration at 6 h,[2]; [5],119 ± 108 ng/mL
same,concentration at 0 h,[2]; [6],0 ng/mL
same,concentration at 0.25 h,[2]; [6],70.2 ± 29.3 ng/mL
same,concentration at 0.5 h,[2]; [6],72.4 ± 28.2 ng/mL
same,concentration at 1 h,[2]; [6],51.2 ± 24.9 ng/mL
same,concentration at 2 h,[2]; [6],13.5 ± 5.5 ng/mL
same,concentration at 3 h,[2]; [6],7.1 ± 5 ng/mL
same,concentration at 4 h,[2]; [6],9.6 ± 6.7 ng/mL
same,concentration at 5 h,[2]; [6],9.2 ± 4.1 ng/mL
same,concentration at 6 h,[2]; [6],10.4 ± 4 ng/mL
same,AUC average ± standard deviation 0 to 6 hours,[2]; [5],175.9 ± 123.1 ng·h/mL
same,AUC average ± standard deviation 0 to 6 hours,[2]; [6],498.7 ± 137.2 ng·h/mL
